Data as given in patent publication US20060069132A1, “Azolecarboxamide herbicides” (priority 2004, published 2006).

Columns and labels:
pigweed = experiment: Test B pre-/postemergence herbicide test; type: in vivo, Amaranthus retroflexus; conditions: for Pigweed plant response rating: postemergence
Summary of the method: (§1)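 Evaluation is visual, comparing treated with control plants on a scale where 0 means no effect and 100 means full control. Treatments were preemergence, or postemergence on seedlings 2–18 cm tall, and held 13–15 days in the greenhouse.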

velvetleaf [1] = experiment: Test A pre-/postemergence herbicide test; type: in vivo, Abutilon theophrasti
Summary of the method: (§2)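 Plants are held in greenhouse about ten days after treatment, then compared with untreated controls and scored 0 (no effect) to 100 (complete control). Preemergence dosing is a directed soil spray on sown sandy loam; postemergence dosing is spray to runoff at 2–10 cm height.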

large crabgrass [2] = experiment: Test A pre-/postemergence herbicide test; type: in vivo, Digitaria sanguinalis
Summary of the method: as §2

morningglory [3] = experiment: Test A pre-/postemergence herbicide test; type: in vivo, Ipomoea spp.
Summary of the method: as §2

corn = experiment: Test B pre-/postemergence herbicide test; type: in vivo, Zea mays; conditions: for Corn plant response rating: postemergence
Summary of the method: as §1

large crabgrass [4] = experiment: Test B pre-/postemergence herbicide test; type: in vivo, Digitaria sanguinalis; conditions: for Crabgrass, Large plant response rating: postemergence
Summary of the method: as §1

cocklebur = experiment: Test B pre-/postemergence herbicide test; type: in vivo, Xanthium strumarium; conditions: for Cocklebur plant response rating: postemergence
Summary of the method: (§3)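 Response was scored visually 13 to 15 days after treatment against untreated greenhouse controls, 0 meaning no effect and 100 complete control. Formulations (solvent mixture plus surfactant) went onto soil after planting, onto foliage of 1- to 4-leaf plants, and onto 2-leaf plants in a flooded paddy set including rice and barnyardgrass.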

wild oat = experiment: Test B postemergence herbicide test; type: in vivo, Avena fatua; conditions: postemergence
Summary of the method: (§4)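 Treated at 2-leaf (paddy) or 1–4-leaf, 2–18 cm (postemergence); greenhouse 13–15 d; visual score vs control, 0 none to 100 complete control; dash = not tested.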

barnyardgrass [5] = experiment: Test B flooded paddy test; type: in vivo, Echinochloa crus-galli; conditions: 1000 g ai/ha, scale 0 to 100 (0 no effect, 100 complete control)
Summary of the method: (§5)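 Visual control ratings, 0–100 versus untreated controls, taken after 13 to 15 days in the greenhouse. Blackgrass received a postemergence spray at the 1- to 4-leaf stage (2–18 cm); ducksalad, umbrella sedge and barnyardgrass were flooded-paddy treated at 2 leaves.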

velvetleaf [6] = experiment: Test B pre-/postemergence herbicide test; type: in vivo, Abutilon theophrasti; conditions: for Velvetleaf plant response rating: postemergence
Summary of the method: as §1

redroot pigweed = experiment: Test A pre-/postemergence herbicide test; type: in vivo, Amaranthus retroflexus
Summary of the method: as §2

rice [7] = experiment: Test B flooded paddy test; type: in vivo, Oryza sativa; conditions: 1000 g ai/ha, scale 0 to 100 (0 no effect, 100 complete control)
Summary of the method: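 Each value is a visual 0–100 response rating taken against controls 13 to 15 days after treatment in the greenhouse. Plants received formulated chemical postemergence at the 1- to 4-leaf stage or, in flooded paddy, at the 2-leaf stage.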

barnyardgrass [8] = experiment: Test A pre-/postemergence herbicide test; type: in vivo, Echinochloa crus-galli
Summary of the method: as §2

ducksalad = experiment: Test B flooded paddy test; type: in vivo, Heteranthera limosa; conditions: 1000 g ai/ha, scale 0 to 100 (0 no effect, 100 complete control)
Summary of the method: as §5

[9] = system: small flower umbrella sedge; experiment: Test B flooded paddy test; type: in vivo, Cyperus difformis; conditions: 1000 g ai/ha, scale 0 to 100 (0 no effect, 100 complete control)
Summary of the method: as §5

rice [10] = experiment: Test B pre-/postemergence herbicide test; type: in vivo, Oryza sativa; conditions: 0 = no effect, 100 = complete control, preemergence
Summary of the method: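 Plants compared with untreated controls 13–15 days post-treatment and given a visual 0–100 injury score. Applications: preemergence to seeds; postemergence at 1- to 4-leaf (2–18 cm); paddy species flooded, 2-leaf stage. Vehicle non-phytotoxic, surfactant included.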

Surinam grass = experiment: Test B pre-/postemergence herbicide test; type: in vivo, Urochloa decumbens; conditions: for Surinam Grass plant response rating: postemergence
Summary of the method: as §1

barnyardgrass [11] = experiment: Test B pre-/postemergence herbicide test; type: in vivo, Echinochloa crus-galli; conditions: for Barnyardgrass plant response rating: postemergence
Summary of the method: as §3

giant foxtail [12] = experiment: Test B pre-/postemergence herbicide test; type: in vivo, Setaria faberi; conditions: for Foxtail, Giant plant response rating: postemergence
Summary of the method: as §1

lambsquarters = experiment: Test B pre-/postemergence herbicide test; type: in vivo, Chenopodium album; conditions: for Lambsquarters plant response rating: postemergence
Summary of the method: as §1

morningglory [13] = experiment: Test B pre-/postemergence herbicide test; type: in vivo, Ipomoea coccinea; conditions: for Morningglory plant response rating: postemergence
Summary of the method: as §3

wheat = experiment: Test B postemergence herbicide test; type: in vivo, Triticum aestivum; design: key to Wheat plant response rating: 0 = no effect, 100 = complete control; conditions: postemergence
Summary of the method: as §4

giant foxtail [14] = experiment: Test A pre-/postemergence herbicide test; type: in vivo, Setaria faberi
Summary of the method: as §2

blackgrass = experiment: Test B postemergence herbicide test; type: in vivo, Alopecurus myosuroides; conditions: postemergence
Summary of the method: as §5

[15] = 125 g ai/ha, 0 = no effect, 100 = complete control, preemergence
[16] = 500 g ai/ha, visual rating, 0 = no effect, 100 = complete control, preemergence
[17] = 125 g ai/ha, visual rating, scale 0 (no effect) to 100 (complete control)
[18] = 500 g ai/ha, scale 0 to 100, 0 is no effect, 100 is complete control
[19] = Postemergence, 500 g ai/ha, 0 to 100 scale, 0 no effect, 100 complete control
[20] = Postemergence, 2000 g ai/ha, 0 to 100 scale, 0 no effect, 100 complete control
[21] = Preemergence, 2000 g ai/ha, visual rating, 0 to 100 scale (0 no effect, 100 complete control)
[22] = preemergence, 500 g ai/ha, visual injury, 0 to 100 scale (0 no effect, 100 complete control)

## CCn1nc(C(C)(C)C)cc1C(=O)Nc1nc(C(=O)N(C)C)ccc1F [Compound 277]
pigweed; [15]
  Pigweed plant response rating (0 to 100 scale): 60
pigweed; [16]
  Plant response rating, Pigweed: 100
pigweed; [17]
  Pigweed plant response rating: 0
pigweed; [18]
  Pigweed plant response rating: 10
Velvetleaf [1]; [19]
  Velvetleaf plant response rating: 25
Velvetleaf [1]; [20]
  Plant response rating, Velvetleaf: 30
Velvetleaf [1]; [21]
  Velvetleaf plant response rating: 45
Velvetleaf [1]; [22]
  Velvetleaf plant response rating: 5
Large crabgrass [2]; [19]
  Crabgrass, Large plant response rating: 0
Large crabgrass [2]; [20]
  Plant response rating, Crabgrass, Large: 0
Large crabgrass [2]; [21]
  Crabgrass, Large plant response rating: 25
Large crabgrass [2]; [22]
  Crabgrass, Large plant response rating: 0
Morningglory [3]; [19]
  Morningglory plant response rating: 0
Morningglory [3]; [20]
  Plant response rating, Morningglory: 0
Morningglory [3]; [21]
  Morningglory plant response rating: 0
Morningglory [3]; [22]
  Morningglory plant response rating: 0
corn; [15]
  Corn plant response rating (0 to 100 scale): 0
corn; [16]
  Plant response rating, Corn: 0
corn; [17]
  Corn plant response rating: 0
corn; [18]
  Corn plant response rating: 10
Large crabgrass [4]; [15]
  Crabgrass, Large plant response rating (0 to 100 scale): 0
Large crabgrass [4]; [16]
  Plant response rating, Crabgrass, Large: 0
Large crabgrass [4]; [17]
  Crabgrass, Large plant response rating: 0
Large crabgrass [4]; [18]
  Crabgrass, Large plant response rating: 0
cocklebur; [15]
  Cocklebur plant response rating (0 to 100 scale): 0
cocklebur; [16]
  Plant response rating, Cocklebur: 10
cocklebur; [17]
  Cocklebur plant response rating: 0
cocklebur; [18]
  Cocklebur plant response rating: 0
Wild oat; [17]
  Oat, Wild plant response rating: 10
Wild oat; [18]
  Oat, Wild plant response rating: 20
Barnyardgrass [5]
  Barnyardgrass plant response rating: 0
Velvetleaf [6]; [15]
  Velvetleaf plant response rating (0 to 100 scale): 0
Velvetleaf [6]; [16]
  Plant response rating, Velvetleaf: 40
Velvetleaf [6]; [17]
  Velvetleaf plant response rating: 20
Velvetleaf [6]; [18]
  Velvetleaf plant response rating: 20
Redroot pigweed; [19]
  Pigweed plant response rating: 10
Redroot pigweed; [20]
  Plant response rating, Pigweed: 35
Redroot pigweed; [21]
  Pigweed plant response rating: 70
Redroot pigweed; [22]
  Pigweed plant response rating: 40
Rice [7]
  Rice plant response rating: 0
Barnyardgrass [8]; [19]
  Barnyardgrass plant response rating: 0
Barnyardgrass [8]; [20]
  Plant response rating, Barnyardgrass: 50
Barnyardgrass [8]; [21]
  Barnyardgrass plant response rating: 70
Barnyardgrass [8]; [22]
  Barnyardgrass plant response rating: 0
ducksalad
  Ducksalad plant response rating: 0
[9]
  Sedge, Umbrella plant response rating: 0
Rice [10]; 125 g ai/ha
  Rice plant response rating (0 to 100 scale): 0
Rice [10]; 500 g ai/ha, visual rating
  Plant response rating, Rice: 20
Surinam grass; [15]
  Surinam Grass plant response rating (0 to 100 scale): 0
Surinam grass; [16]
  Plant response rating, Surinam Grass: 0
Surinam grass; [17]
  Surinam Grass plant response rating: 0
Surinam grass; [18]
  Surinam Grass plant response rating: 0
Barnyardgrass [11]; [15]
  Barnyardgrass plant response rating (0 to 100 scale): 0
Barnyardgrass [11]; [16]
  Plant response rating, Barnyardgrass: 0
Barnyardgrass [11]; [17]
  Barnyardgrass plant response rating: 0
Barnyardgrass [11]; [18]
  Barnyardgrass plant response rating: 0
Giant foxtail [12]; [15]
  Foxtail, Giant plant response rating (0 to 100 scale): 0
Giant foxtail [12]; [16]
  Plant response rating, Foxtail, Giant: 0
Giant foxtail [12]; [17]
  Foxtail, Giant plant response rating: 0
Giant foxtail [12]; [18]
  Foxtail, Giant plant response rating: 0
lambsquarters; [15]
  Lambsquarters plant response rating (0 to 100 scale): 40
lambsquarters; [16]
  Plant response rating, Lambsquarters: 80
lambsquarters; [17]
  Lambsquarters plant response rating: 20
lambsquarters; [18]
  Lambsquarters plant response rating: 30
Morningglory [13]; [15]
  Morningglory plant response rating (0 to 100 scale): 0
Morningglory [13]; [16]
  Plant response rating, Morningglory: 0
Morningglory [13]; [17]
  Morningglory plant response rating: 0
Morningglory [13]; [18]
  Morningglory plant response rating: 20
wheat; [17]
  Wheat plant response rating: 20
wheat; [18]
  Wheat plant response rating: 20
Giant foxtail [14]; [19]
  Foxtail, Giant plant response rating: 0
Giant foxtail [14]; [20]
  Plant response rating, Foxtail, Giant: 0
Giant foxtail [14]; [21]
  Foxtail, Giant plant response rating: 55
Giant foxtail [14]; [22]
  Foxtail, Giant plant response rating: 0
blackgrass; [17]
  Blackgrass plant response rating: 10
blackgrass; [18]
  Blackgrass plant response rating: 20
